Test results from patent US7098241B2, “Thiophene hydroxamic acid derivatives” (Hoffmann-La Roche Inc., priority 2002, dated 2006).

Tests used:
[1] = test system: HT-29 cells (human colon carcinoma cell line); test: MTT anti-proliferation assay on HT-29 cells; type: cell-based; conditions: Homo sapiens, 120 h, 384 well plates, 5 days, read-out: IC50 HT29 384
From the text: MTT (3-(4,5-dimethylthiazol-2-yl)-2,5-diphenyl tetrazolium bromide) is widely used for the quantitative determination of cytotoxic effects or in vitro chemosensitivity of tumor cells. The assay is based on the cleavage of the yellow tetrazolium salt (MTT) to purple formazan crystals by metabolic active cells. For details, see Rubinstein, L. V., et al., J. Natl. Cancer Inst. 82 (1990) 1113.
We proceeded as follows: HT-29 cells (human colon carcinoma cell line) were cultivated in RPMI 1640, 2.5% FCS, 2 mM glutamine, 100 u/ml penicillin, 100 ug/ml streptomycin. For the assay the cells were seeded in 384 well plates, 900 cells per well, in the same medium. At the next day, the compounds (dissolved 10 mM in DMSO) were added in various concentrations ranging from 30 uM to 1.5 nM. After 5 days, the MTT assay was done mainly according to the instructions of the manufacturer (Cell proliferation kit I, MTT, from Roche Molecular Biochemicals). In brief: MTT labeling reagent was added to a final concentration of 0.5 mg/ml, added and incubated for 4 hrs at 37° C., 5% CO2. During this incubation time purple formazan crystals are formed. After addition of the solubilization solution (20% SDS in 0.02 M HCl) the plates were incubated overnight at 37° C., 5% CO2. After careful mixing, the plates were measured in Victor 2 (scanning multiwell spectrophotometer, Wallac) at 550 nm.
A decrease in number of living cells results in a decrease in the total metabolic activity in the sample. The decrease directly correlates to the amount of purple color resulting from the solubilization of the purple formazan crystals. Determination of IC50 was done using XL-fit.

recombinant HDAC-1 = target: T1, recombinant HDAC-1 (Homo sapiens, UniProt Q13547); test: HDAC biochemical quench assay; conditions: recombinant HDAC-1 purified from HEK 293 cells, 1 uM peptide substrate, 90 min at room temperature
T1 construct: made in house; host or cells: HEK 293 cells
T1 sequence (Q13547 whole entry, species assumed): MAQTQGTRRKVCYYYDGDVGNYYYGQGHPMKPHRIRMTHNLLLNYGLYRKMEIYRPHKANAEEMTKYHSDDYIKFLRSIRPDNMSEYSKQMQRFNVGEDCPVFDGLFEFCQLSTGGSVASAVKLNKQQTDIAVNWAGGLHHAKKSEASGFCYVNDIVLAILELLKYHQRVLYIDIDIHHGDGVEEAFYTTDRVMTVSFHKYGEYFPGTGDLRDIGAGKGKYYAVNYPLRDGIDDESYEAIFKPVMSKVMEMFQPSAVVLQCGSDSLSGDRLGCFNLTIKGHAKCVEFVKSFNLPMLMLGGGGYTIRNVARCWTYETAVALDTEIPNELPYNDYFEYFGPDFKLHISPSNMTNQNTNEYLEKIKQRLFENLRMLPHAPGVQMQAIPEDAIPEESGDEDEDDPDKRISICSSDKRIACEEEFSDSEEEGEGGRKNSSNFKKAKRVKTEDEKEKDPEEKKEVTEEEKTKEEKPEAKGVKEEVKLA
From the text: The function of histone deacetylase (HDAC) is the deacetylation of lysines in e.g. histone H4. A peptide of 17 amino acids derived from histone H4 was labeled with TAMRA at the C-terminus and QSY-7 at the N-terminus and was used as a substrate (TAMRA-first17 aa of histone H4-QSY7). Following deacetylation by HDAC, the enzyme Lys C is able to cleave the peptide after lysine. […] Inhibition of HDAC by compounds results in low signals because Lys C could not cleave the substrate and the quench effect persists.
For dose response curves, 10 concentrations were diluted 1:3 starting at 30 uM. 10 ul compound dilution were put into each well of a 384 well plate. 10 ul HDAC were added (recombinant HDAC-1 purified from HEK 293 cells; enzyme activity has to be assessed for each preparation). 10 ul peptide substrate was added (1 uM final concentration, derived from 1 mM stock solution diluted 1:1000 in test buffer). After 90 min incubation at room temperature, the reaction was stopped by addition of 20 ul test buffer including 3 ug/ml Lys C and 0.075% SDS. After overnight incubation the fluorescence signal of TAMRA was measured (Victor 2 from Wallac, absorption 544 nm, emission 590 nm). The O.D. of DMSO-treated control wells is 100%, the % inhibition of compound treated wells is calculated in relation to 100%. Based on 10 concentrations a IC50 curve is generated by using XL.fit3.
Test buffer used: a mixture of 10 mM Hepes pH8, 10 mM NaCl, 10% Glycerol, 0.005% Triton X100, 0.1 mM EDTA, 0.1 mM TCEP. As plates were used 384 well plates (black, Greiner, 781077).

[2] = test system: acetylated histone H3 in HT29 human colon carcinoma xenografts; test: Acetylation levels of histone H3 in HT29 tumor bearing mice; type: in vivo, NMRI nude mice; conditions: for acetylated H3, BLU/1 μg histone protein: HT29 xenograft, mean; for acetylated H3, BLU % (BLU percent versus vehicle control): vehicle = 100
Experimental: Determination of Acetylation Levels of Histone H3 in Tumor Bearing Mice
The HT-29 cell line is derived from a human colon adenocarcinoma and was obtained from ATCC and kept in an in house working cell bank for pharmacological use. Cells were cultured in RPMI1640/2 mM L-Glutamin medium supplemented with 10% heat inactivated FCS. For inoculation HT29 tumor cells are removed (Trypsin-EDTA, 50 U/mg) from culture flasks and transferred into culture medium (RPMI 1640, 10% heat inactivated FCS), washed and resuspended in sterile PBS to achieve a final cell concentration of 5×10^6/100 μl. Cell suspension was carefully mixed by regular shaking to avoid cell aggregation and filled into a 1.0 ml graded syringe. After s.c. inoculation of HT29 human colon carcinoma cells (5×10^6/100 μl) in the right upper quarter of ventral breast region of NMRI nude mice, animals were inspected 2–3 times per week until xenografts reached a volume of roughly 1000 mm^3 or more, sufficient for analysis of histone acetylation. After single i.p. application of 400 mg/kg of the compound of example 1, formulated as microsuspension in 7.5% modified gelatin with 0.22% NaCl solution, the respective group of animals was sacrificed 3, 6, 12, and 24 h after dosing. Tumors were excised for analysis of acetylated histones (H3). An aliquot of tumors (ca. 200 mg) was analyzed for acetylated H3. Histones were extracted from xenografts by standardized methods (Richon, V. M., et al., PNAS 97 (2000) 10014–10019; Yoshida, M., et al., J. Biol. Chem. 265 (1990) 17174–17179), separated and acetylated H3 identified by Slot Blot and Immuno Blot techniques (SB-IB, Bio-Rad Laboratories GmbH, Munich, Germany) using anti-acetyled-H3 Pabs (UpState Biotechnology, Cat. #06-599). Histone protein was determined (Pierce Kit) and adjusted to 3 mg/ml to apply a standardized amount of 1 μg histone protein for H3 analysis in SB-IB. Quantification of acetylated H3 was performed by ECL (Enhanced Chemo Luminescence, Amersham Pharmacia, Hybond™ ECL™ Nitrocellulose membrane) measuring bioluminescence with the Lumi-Imager instrument (Roche Diagnostics). Data are expressed either as BLU/μg histone protein (BLU=Bio-Luminescence-Units), or as BLU percent versus vehicle control. After single administration of the compound of example 1, there was a marked and significant increase of acetylated H3 lasting for up to 24 h compared to the vehicle groups. The maximum acetylation was attained 6 h after dosing. A tabulated summary of the mean values and percentual changes are depicted below.

[3] = 3 h after single i.p. 400 mg/kg
[4] = 6 h after single i.p. 400 mg/kg
[5] = 12 h after single i.p. 400 mg/kg
[6] = 24 h after single i.p. 400 mg/kg

- IC50 [1]: 170 nM
- IC50 (recombinant HDAC-1): 3.4 nM
SMILES: C[C@@H](NC(=O)c1ccc(C(=O)NO)s1)c1ccccc1 [Example 1, (R)-thiophene-2,5-dicarboxylic acid 2-hydroxyamide 5-[(1-phenyl-ethyl)-amide]]
- acetylated H3, BLU/1 μg histone protein [2, 3]: 57824 BLU/1 μg
- acetylated H3, BLU % (BLU percent versus vehicle control) [2, 3]: 466%
- acetylated H3, BLU/1 μg histone protein [2, 4]: 98717 BLU/1 μg
- acetylated H3, BLU % (BLU percent versus vehicle control) [2, 4]: 502%
- acetylated H3, BLU/1 μg histone protein [2, 5]: 75378 BLU/1 μg
- acetylated H3, BLU % (BLU percent versus vehicle control) [2, 5]: 447%
- acetylated H3, BLU/1 μg histone protein [2, 6]: 40965 BLU/1 μg
- acetylated H3, BLU % (BLU percent versus vehicle control) [2, 6]: 269%
- duration of marked and significant increase of acetylated H3 compared to vehicle ([2]; single i.p. 400 mg/kg): up to 24 h
- time of maximum acetylation after dosing ([2]; single i.p. 400 mg/kg): 6 h
